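Five concentrations, 48 hours, 96-well plates. GI50: concentration for 50% inhibition of growth.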 Activity calls are given as the source filed them. Rule as the data show it: active = GI50 up to about 1.1 µM and inactive = higher. Some results are limits rather than exact numbers.

The record followed here is ChEMBL document CHEMBL1201862, “PubChem BioAssay data set” (2004).

Among the test systems are SK-MEL-2; HOP-92; HT-29; 786-0; Malme-3M; MDA-MB-435; SK-MEL-5; UACC-257; SNB-19; OVCAR-8; HCT-15; SN12C; OVCAR-5; UACC-62; CCRF-CEM; RXF 393; SF-295; COLO 205; LOX IMVI; NCI/ADR-RES.
What all share (experiment): growth of human tumour cells (NCI), 48 h

Regarding `O=C1C(Br)=C(c2ccccc2)C(c2ccccc2)=C1c1ccccc1`, the GI50 in the assay on SK-MEL-2 is 4.41 µM (inactive); in the assay on HOP-92, 1.69 µM (inactive); with HT-29 it was 2.28 µM (inactive); in the assay on 786-0 it was 1.95 µM (inactive); in the assay with Malme-3M, 1.75 µM (inactive); in the assay with MDA-MB-435 it was 3.82 µM (inactive). Moreover, the GI50 was 2.94 µM (inactive) with SK-MEL-5; 3.35 µM (inactive) in the assay on UACC-257; 11.4 µM (inactive) in the assay on SNB-19; 2.04 µM (inactive) in the assay with OVCAR-8; 1.76 µM in the assay on HCT-15; 1.95 µM (inactive) with SN12C. Further, the GI50 is 12 µM (inactive) with OVCAR-5; 2.38 µM (inactive) with UACC-62; 0.269 µM (active) in the assay with CCRF-CEM; 1.99 µM (inactive) with RXF 393; 10.9 µM (inactive) in the assay on SF-295; 1.87 µM (inactive) with COLO 205. Further, in the assay on LOX IMVI, the GI50 was 1.33 µM (inactive).
As to `Cc1nnc2n(c1=O)CCCN2C`, the GI50 with SK-MEL-2, with HOP-92, in the assay with HT-29, in the assay on 786-0, in the assay with Malme-3M and with MDA-MB-435 was > 100 µM (inactive) in each case. Further, the GI50 with SK-MEL-5 was > 100 µM (inactive); with SNB-19, > 100 µM (inactive); with OVCAR-8 it was > 100 µM (inactive); in the assay on HCT-15 it was > 100 µM; with SN12C, > 100 µM (inactive); with OVCAR-5, > 100 µM (inactive). In addition, the GI50 in the assay with UACC-62, with CCRF-CEM, with RXF 393, in the assay with SF-295, with COLO 205 and with LOX IMVI was > 100 µM (inactive) in each case.
For `COc1c2cc(C(C)(C)C)cc1CSCc1cc(C(C)(C)C)cc(c1OC)CCCCC2`, the GI50 with SK-MEL-2 is 25.1 µM (inactive); in the assay with HT-29, > 50 µM (inactive); in the assay with 786-0 it was > 50 µM (inactive); with Malme-3M, 29 µM (inactive); in the assay with MDA-MB-435, > 50 µM (inactive); in the assay on SK-MEL-5, 24.1 µM (inactive). Also, the GI50 in the assay with UACC-257 is 13.3 µM (inactive); in the assay with SNB-19, 20.2 µM (inactive); in the assay on OVCAR-8 it was 28.2 µM (inactive); in the assay on HCT-15 it was > 50 µM; in the assay with SN12C, > 50 µM (inactive); in the assay with OVCAR-5, > 50 µM (inactive). Moreover, the GI50 in the assay on UACC-62 is 29.7 µM (inactive); in the assay on CCRF-CEM it was 33.1 µM (inactive); in the assay on SF-295 it was 17 µM (inactive); in the assay with NCI/ADR-RES, > 50 µM (inactive); in the assay on COLO 205, > 50 µM (inactive).
Take `O=[N+]([O-])c1ccc2nc3n(c2c1)C(c1c(F)cccc1F)SC3` (centres undefined): the GI50 in the assay on HT-29 was > 100 µM (inactive); in the assay on 786-0 it was > 100 µM (inactive); with Malme-3M, > 100 µM (inactive); with SK-MEL-5, > 10 µM (inactive); with UACC-257, > 100 µM (inactive); in the assay on SNB-19 it was > 100 µM (inactive). The GI50 is > 10 µM (inactive) with OVCAR-8; > 100 µM (inactive) in the assay with SN12C; > 100 µM (inactive) in the assay with OVCAR-5; > 100 µM (inactive) with CCRF-CEM; 89.5 µM (inactive) in the assay on SF-295; > 100 µM (inactive) with NCI/ADR-RES. Besides, the GI50 with LOX IMVI is > 100 µM (inactive).
Take `[N-]=[N+]=NCN1C(=O)C2C3C=CC(C2C1=O)C1C2C(=O)N(CN=[N+]=[N-])C(=O)C2C31` (centres undefined): the GI50 was > 100 µM (inactive) in the assay on SK-MEL-2; 12.5 µM (inactive) in the assay on HOP-92; > 100 µM (inactive) in the assay on HT-29; > 100 µM (inactive) in the assay on 786-0; > 100 µM (inactive) in the assay on MDA-MB-435; > 100 µM (inactive) in the assay on SK-MEL-5. Moreover, the GI50 is > 100 µM (inactive) with UACC-257; > 100 µM (inactive) in the assay on SNB-19; > 100 µM (inactive) in the assay on OVCAR-8; > 100 µM in the assay on HCT-15; > 100 µM (inactive) in the assay with SN12C; > 100 µM (inactive) in the assay on UACC-62. For the same molecule, the GI50 in the assay on SF-295 is 60 µM (inactive); in the assay on NCI/ADR-RES it was > 100 µM (inactive); in the assay with COLO 205, > 100 µM (inactive); in the assay with LOX IMVI, > 100 µM (inactive).
With `CCN(CC)CCC1CCCCN1CC(=O)N1c2ccccc2NC(=O)CC1C` (centres undefined), the GI50 in the assay with SK-MEL-2, in the assay with HOP-92, with HT-29, in the assay on 786-0, in the assay with Malme-3M and with MDA-MB-435 was > 100 µM (inactive) in each case. Also, the GI50 in the assay on SK-MEL-5 is > 100 µM (inactive); with UACC-257 it was > 100 µM (inactive); in the assay with SNB-19, > 100 µM (inactive); in the assay on OVCAR-8, > 100 µM (inactive); in the assay with HCT-15, > 100 µM; with SN12C, > 100 µM (inactive). Also, the GI50 in the assay on OVCAR-5, with UACC-62, with CCRF-CEM, with RXF 393, with SF-295 and in the assay on COLO 205 was > 100 µM (inactive) throughout. Further, the GI50 in the assay with LOX IMVI was > 100 µM (inactive).
With `CCN(CC)CCC1CCCCN1CC(=O)N1c2ccccc2NC(=O)c2ccccc21` (centres undefined), the GI50 in the assay on SK-MEL-2, in the assay with HOP-92, in the assay on HT-29, in the assay on 786-0, in the assay on Malme-3M and in the assay with MDA-MB-435 was > 100 µM (inactive) each time. The GI50 in the assay on SK-MEL-5 is > 100 µM (inactive); with UACC-257, > 100 µM (inactive); in the assay on SNB-19, > 100 µM (inactive); in the assay on OVCAR-8, > 100 µM (inactive); in the assay with HCT-15, > 100 µM; in the assay with SN12C, > 100 µM (inactive). Moreover, the GI50 with OVCAR-5, with UACC-62, with CCRF-CEM, in the assay with RXF 393, in the assay on SF-295 and with COLO 205 was > 100 µM (inactive) each time. In the assay on LOX IMVI, the GI50 is > 100 µM (inactive).
On to `CCN1C/C(=C\c2ccc(Cl)cc2)c2nc(N)c(C#N)c(-c3ccc(Cl)cc3)c2C1`, for which the GI50 with SK-MEL-2, with HT-29, in the assay with 786-0, with Malme-3M, in the assay on MDA-MB-435 and with SK-MEL-5 was > 100 µM (inactive) each time. Moreover, the GI50 with UACC-257 was > 100 µM (inactive); in the assay on SNB-19, > 100 µM (inactive); in the assay with OVCAR-8 it was > 100 µM (inactive); in the assay with HCT-15, > 100 µM; in the assay on OVCAR-5, > 100 µM (inactive); in the assay on UACC-62, > 100 µM (inactive). Besides, the GI50 in the assay on CCRF-CEM, in the assay on RXF 393, in the assay with SF-295, in the assay on NCI/ADR-RES, in the assay on COLO 205 and with LOX IMVI was > 100 µM (inactive) throughout.
For the molecule `O=[N+]([O-])c1cccc(C(O)/C(=N/Nc2ccccc2)C2Nc3ccc([N+](=O)[O-])cc3N=C2O)c1` (centres undefined), the GI50 in the assay with SK-MEL-2 is > 100 µM (inactive); with HOP-92 it was > 100 µM (inactive); with HT-29, 50.9 µM (inactive); in the assay on 786-0, > 100 µM (inactive); in the assay on Malme-3M it was 95.9 µM (inactive); in the assay on SK-MEL-5, 16.9 µM (inactive). In addition, the GI50 is > 100 µM (inactive) in the assay on UACC-257; > 100 µM (inactive) in the assay on SNB-19; > 100 µM (inactive) in the assay with OVCAR-8; 14.4 µM with HCT-15; > 100 µM (inactive) in the assay on SN12C; 49.3 µM (inactive) in the assay with OVCAR-5. For the same molecule, the GI50 with UACC-62 was 17.4 µM (inactive); in the assay with CCRF-CEM, 81.8 µM (inactive); in the assay on RXF 393, > 100 µM (inactive); in the assay on SF-295, 60.4 µM (inactive); in the assay on COLO 205, 61.1 µM (inactive); in the assay on LOX IMVI it was > 100 µM (inactive).
In the case of `Nc1nc(N)c2nc(CN(C=O)c3ccc(C(=O)O)cc3)cnc2n1`, the GI50 was > 100 µM (inactive) in the assay on SK-MEL-2; > 100 µM (inactive) with HOP-92; > 100 µM (inactive) in the assay with HT-29; 3.05 µM (inactive) in the assay with 786-0; 8.18 µM (inactive) with Malme-3M; 17.9 µM (inactive) with MDA-MB-435. Besides, the GI50 with SK-MEL-5 is 63.4 µM (inactive); with UACC-257, > 100 µM (inactive); with SNB-19 it was > 42.2 µM (inactive); with OVCAR-8 it was 3.85 µM (inactive); in the assay on HCT-15 it was 7.14 µM; in the assay with SN12C, 52.6 µM (inactive). The GI50 with OVCAR-5 was > 70 µM (inactive); in the assay with UACC-62 it was 7.11 µM (inactive); in the assay with CCRF-CEM, 4.15 µM (inactive); with RXF 393, > 100 µM (inactive); with SF-295, 17.1 µM (inactive); in the assay on COLO 205, > 100 µM (inactive). The GI50 in the assay on LOX IMVI is 4.27 µM (inactive).
As for `CCCc1cc2c(cc1O)CC[C@@H]1[C@@H]2CC[C@]2(C)[C@@H](O)CC[C@@H]12`, the GI50 in the assay with SK-MEL-2 is 15.1 µM (inactive); in the assay with HOP-92, 19.1 µM (inactive); in the assay with HT-29, 16.3 µM (inactive); in the assay with 786-0, 13.6 µM (inactive); in the assay with Malme-3M, 13 µM (inactive); with SK-MEL-5, 10.5 µM (inactive). For the same molecule, the GI50 is 13.1 µM (inactive) in the assay on UACC-257; 12.9 µM (inactive) in the assay on SNB-19; 14.4 µM (inactive) in the assay with OVCAR-8; 4.98 µM with HCT-15; 11.7 µM (inactive) in the assay on SN12C; 19.5 µM (inactive) with OVCAR-5. For the same molecule, the GI50 was 5.41 µM (inactive) in the assay on CCRF-CEM; 10.2 µM (inactive) with RXF 393; 5.82 µM (inactive) in the assay with SF-295; 6.32 µM (inactive) with NCI/ADR-RES; 18.2 µM (inactive) with COLO 205; 10.5 µM (inactive) with LOX IMVI.
